Values of other authors in US12636242B2, “Increased solubilization of diethylamino hydroxybenzoyl hexyl benzoate” (DSM IP ASSETS B.V., priority 2020, dated 2026).
Like-named read-outs stand apart in the source and are kept apart here.

[1] = listed as Diethylamino hydroxybenzoyl hexyl benzoate

- Solubility in esters and alcohols (ethyl hexyl-benzoate, ethanol): very soluble
- Solubility in esters and alcohols (ethyl hexyl-benzoate, ethanol) [1]: moderate solubility
- Solubility in water and alkanes: insoluble
- Solubility in water and alkanes [1]: very low
SMILES: CCCCCCOC(=O)c1ccccc1C(=O)c1ccc(N(CC)CC)cc1O [UV-filter of the formula (I), diethylamino hydroxybenzoyl hexyl benzoate]
